Laboratory results as given in ChEMBL document CHEMBL1201862, “PubChem BioAssay data set” (2004).
Calls of active or inactive are those of the source.

Tests used:
[1] = inhibitors of intracellular T. cruzi replication, confirmation, NIH3T3 host cells, beta-gal luminescence (AID 2044); assay type: functional, cell-based;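 further: intracellular parasites grown in NIH/3T3 mouse fibroblasts as host cells; luminescent beta-galactosidase reporter signal from transgenic T. cruzi replicating inside host cells; inhibitors lower the luminescence signal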
[2] = cytotoxicity toward NIH3T3 fibroblasts, dose response, counter-screen, cell-based, ATP luminescence, mouse fibroblasts (AID 2010); assay type: functional;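 further: cells exposed to compound for about 90 hours before reading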
Jurkat = test: antigen receptor-induced NF-kB inhibitors, dose response, Jurkat, luciferase reporter, luminescence, B- and T-cell (AID 489004); assay type: functional, cell-based; conditions: Homo sapiens;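 further: NF-kB luciferase reporter Jurkat cells stimulated with PMA plus ionomycin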
[3] = cytotoxicity in HEK-293T NF-kB-Luc cells, dose response, cytotoxicity control for B/T-cell NF-kB inhibitor project, cell-based, uHTS hits (AID 489019); assay type: functional;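 further: IC50 reflects cytotoxicity as loss of cell viability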
INS1 = test: beta cell apoptosis inhibitors, cytokine rescue, dose response, luminescence, retest (AID 449756); assay type: functional, cell-based; conditions: Rattus norvegicus;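 further: cell death triggered by IL-1 beta plus TNF-alpha plus IFN-gamma mixture; protective hits raise ATP signal compared with cytokine alone wells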
[4] = biological target: T1, High affinity choline transporter 1 (Homo sapiens, UniProt Q9GZV3); test: CHT activators, dose response, cell-based, 10-point CRC, membrane potential dye (AID 602376); assay type: functional
T1 sequence (Q9GZV3 whole entry): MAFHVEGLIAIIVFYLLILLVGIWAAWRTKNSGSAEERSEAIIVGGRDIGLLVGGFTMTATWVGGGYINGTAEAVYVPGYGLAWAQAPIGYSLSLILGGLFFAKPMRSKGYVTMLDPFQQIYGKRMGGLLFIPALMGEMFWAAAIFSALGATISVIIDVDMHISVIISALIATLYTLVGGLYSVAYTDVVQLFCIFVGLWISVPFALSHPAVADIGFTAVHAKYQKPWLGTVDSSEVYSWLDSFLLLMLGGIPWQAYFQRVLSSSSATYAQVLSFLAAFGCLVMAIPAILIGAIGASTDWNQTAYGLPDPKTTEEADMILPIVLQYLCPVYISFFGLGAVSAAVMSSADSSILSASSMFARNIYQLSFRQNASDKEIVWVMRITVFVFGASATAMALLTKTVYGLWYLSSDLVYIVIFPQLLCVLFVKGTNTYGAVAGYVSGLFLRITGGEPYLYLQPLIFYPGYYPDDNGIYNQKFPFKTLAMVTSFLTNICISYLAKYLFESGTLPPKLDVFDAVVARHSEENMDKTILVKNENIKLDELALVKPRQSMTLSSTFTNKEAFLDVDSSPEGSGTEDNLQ

[5] = system: Streptococcus sp. 'group A'; test: growth inhibition of control SK(-) GAS strain, dose response, counter-screen for streptokinase expression inhibitor project, luminescence, kanamycin, BacTiterGlo, confirmation (AID 1900); assay type: functional, organism-based
Streptokinase A = biological target: T2, Streptokinase A (Streptococcus pyogenes serotype M1, UniProt P10520); test: S. pyogenes streptokinase expression inhibitors, potency, dose response, plasminogen activation absorbance, OD405 (AID 1914); assay type: functional, Streptococcus pyogenes M1 GAS;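 further: secreted streptokinase activity via plasminogen activation per viability signal from cell pellet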
T2 sequence (P10520 whole entry): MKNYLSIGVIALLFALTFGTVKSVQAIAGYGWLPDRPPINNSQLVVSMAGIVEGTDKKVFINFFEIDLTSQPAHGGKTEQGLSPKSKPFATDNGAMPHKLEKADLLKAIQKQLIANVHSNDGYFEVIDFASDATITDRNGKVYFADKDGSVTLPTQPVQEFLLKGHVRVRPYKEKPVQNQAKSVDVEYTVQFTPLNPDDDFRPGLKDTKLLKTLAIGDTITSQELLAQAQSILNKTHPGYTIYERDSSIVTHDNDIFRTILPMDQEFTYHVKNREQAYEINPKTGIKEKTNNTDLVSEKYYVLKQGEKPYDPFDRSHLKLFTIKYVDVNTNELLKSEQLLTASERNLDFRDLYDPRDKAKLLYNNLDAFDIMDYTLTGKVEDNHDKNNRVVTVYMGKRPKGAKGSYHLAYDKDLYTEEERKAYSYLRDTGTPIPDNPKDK

Streptococcus = test: Group A Streptococcus viability loss, dose response, counter-screen for streptokinase expression inhibitor project, luminescence, BacTiterGlo (AID 1915); assay type: functional, organism-based;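 further: potency for reduction of bacterial viability or growth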
Melanocortin receptor 4 = Melanocortin receptor 4 (Homo sapiens, UniProt P32245); test: MC4R antagonist potency on cAMP, dose response, cell-based, TR-FRET, biased antagonists (AID 602298); assay type: functional;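 further: antagonist potency against agonist-stimulated cAMP production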
Chain of Melanocortin receptor 4 (P32245 whole entry): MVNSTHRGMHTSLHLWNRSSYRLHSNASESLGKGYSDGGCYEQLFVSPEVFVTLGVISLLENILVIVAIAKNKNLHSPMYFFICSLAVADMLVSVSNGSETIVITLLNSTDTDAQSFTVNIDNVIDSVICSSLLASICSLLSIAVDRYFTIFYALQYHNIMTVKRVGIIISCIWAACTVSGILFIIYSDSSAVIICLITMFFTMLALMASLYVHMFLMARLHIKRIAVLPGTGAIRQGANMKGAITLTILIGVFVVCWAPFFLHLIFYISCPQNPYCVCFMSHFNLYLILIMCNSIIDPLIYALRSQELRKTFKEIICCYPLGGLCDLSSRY

[6] = nonselective inhibitors of cellular cAMP signaling, dose response, counter-screen for MC4R biased antagonist project, cell-based, TR-FRET cAMP detection (AID 602305); assay type: functional;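 further: U2OS cells stimulated with forskolin near its EC80 as the cAMP inducer; potency is for inhibition of forskolin-stimulated cAMP signaling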
[7] = Luminescence Cell-Based Dose Retest to Confirm Inhibitors of Cancer Stem Cells. [Related pubchem assays (depositor defined):AID2717, AID2721]; assay type: functional; conditions: Homo sapiens
[8] = biological target: Protein disulfide-isomerase (Homo sapiens, UniProt P07237); test: PDI inhibitors, insulin aggregation turbidity, dose response, biochemical, absorbance, cherry-picked samples (AID 602350); assay type: functional
Chain of Protein disulfide-isomerase (P07237 whole entry): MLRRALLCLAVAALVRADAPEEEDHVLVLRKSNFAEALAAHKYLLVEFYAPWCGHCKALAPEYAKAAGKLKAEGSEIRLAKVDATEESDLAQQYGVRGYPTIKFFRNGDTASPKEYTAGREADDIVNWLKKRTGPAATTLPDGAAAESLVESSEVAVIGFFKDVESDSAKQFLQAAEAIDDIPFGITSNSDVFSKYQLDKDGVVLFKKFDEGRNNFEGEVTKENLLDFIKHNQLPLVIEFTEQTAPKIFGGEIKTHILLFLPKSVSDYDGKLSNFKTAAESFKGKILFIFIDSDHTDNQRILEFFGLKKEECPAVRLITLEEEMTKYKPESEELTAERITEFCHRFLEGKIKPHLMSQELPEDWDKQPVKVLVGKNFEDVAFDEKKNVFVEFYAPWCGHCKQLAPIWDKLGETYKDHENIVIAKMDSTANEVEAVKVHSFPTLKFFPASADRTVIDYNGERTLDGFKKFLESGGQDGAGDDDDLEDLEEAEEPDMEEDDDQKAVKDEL

Protein Wnt-3a = Protein Wnt-3a (Mus musculus, UniProt P27467); test: Wnt3a-driven reporter signaling inhibition, dose response, selectivity assay for Gli-SUFU antagonist project, Wnt-LIGHT cells, luminescence (AID 651570); assay type: functional; conditions: read-out: IC50_Mean;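 further: Wnt-LIGHT reporter cells stimulated with conditioned medium from Wnt3a-producing cells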
Chain of Protein Wnt-3a (P27467 whole entry): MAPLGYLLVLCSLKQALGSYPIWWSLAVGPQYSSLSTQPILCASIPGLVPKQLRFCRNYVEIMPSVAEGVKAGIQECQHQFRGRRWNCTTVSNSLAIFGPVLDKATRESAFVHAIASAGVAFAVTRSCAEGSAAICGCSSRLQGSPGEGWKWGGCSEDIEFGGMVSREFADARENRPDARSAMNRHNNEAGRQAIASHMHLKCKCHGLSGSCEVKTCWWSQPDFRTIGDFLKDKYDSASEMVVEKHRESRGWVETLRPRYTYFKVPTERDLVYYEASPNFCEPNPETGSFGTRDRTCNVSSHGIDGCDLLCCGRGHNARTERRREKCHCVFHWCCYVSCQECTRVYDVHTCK

SMILES: COc1ccc(-c2cn3c([n+]2-c2ccc(C)cc2)CCCCC3)cc1
- EC50 [1]: 0.171 µM (active)
- EC50 [2]: > 60 µM (not active)
- IC50 (Jurkat): > 80 µM (inactive)
- IC50 [3]: > 80 µM (inactive)
- AC50 (INS1): 0.348 µM (active)
- EC50 [4]: 9.77 µM (active)

SMILES: COC(=O)c1cc(S(=O)(=O)n2nc(C)c(Br)c2C)c(Cl)cc1Cl
- EC50 [5]: 1.8 µM (active)
- EC50 (Streptokinase A): > 150 µM (not active)
- EC50 (Streptococcus): 10.4 µM (active)
- IC50 (Melanocortin receptor 4): > 64.6 µM (inactive)
- IC50 [6]: > 64.6 µM (inactive)

SMILES: Oc1ccc(/C=C/c2nc(-c3ccccc3O)n(-c3ccccc3)n2)cc1
- AC50 [7]: 6.8 µM (active)
- AC50 [8]: 18.8 µM (active)

SMILES: CCC(C)CCN1C(N(C)C)=NC[C@@H]1CC(C)C (some centres undefined)
- IC50 (Protein Wnt-3a): 6.72 µM (active)
